Results: US11648233B2, “Heripenes with pain-relieving effect, active substances of Hericium erinaceus mycelium and the preparation method thereof, and pharmaceutical composition containing the heripenes or active substances” (GRAPE KING BIO LTD., priority 2015, dated 2023)

Test system: P2R (P2-purinoceptor) in human osteosarcoma HOS cells
Assay: Inhibition of ATP-induced P2R calcium signals (Fura-2 fluorescence) in HOS cells
Type: cell-based
Settings: erinacine S 5, 10 and 15 μg/ml (FIG. 7B)
Protocol: Cells were filled with a fluorescent dye-based calcium indicator, “Fura-2, AM cell permeant” (ThermoFisher Scientific, Waltham, Mass., U.S.A.), and the variation of the fluorescence level at an emission wavelength of 505 nm was determined at two excitation wavelengths of 340 nm and 380 nm using a fluorescence spectrometer (SPEX® 1681, Spec Industries, Inc., New Jersey, U.S.A.). During the experiment, ATP was added to cells to stimulate the P2R expression, and the variation of the fluorescence level was observed. Finally, 1 wt. % digitonin was added to enable the cells to become transparent, and the maximum fluorescence ratio (Rmax) was obtained at a concentration of 2 mM Ca^2+. Ethyleneglycol bis(2-aminoethylether)tetraacetic acid (EGTA) then was added to chelate with the calcium ions to obtain a minimum fluorescence ratio (Rmin). The dissociation coefficient (Kd) of fura-2 to Ca^2+ is 225 nM. The intracellular calcium-ion concentration was calculated using formulas (Grynkiewicz et al., J. Biol. Chem. 1985. 260(6):3440-3450). […]
Comparing the P2R-correlated calcium signals in three cell lines stimulated with ATP, the variation of the calcium-ion concentration in human osteosarcoma HOS cells was the most significant, and thus the influence of the agent on P2R can clearly be determined. […]

CC(C)C1=C2C3CCC4=C(O)C(=O)C5(O)COC6OC(C4C65O)C3(C)CCC2(C)CC1 (stereo not shown) [erinacine S]
inhibition effect on the variation of the intracellular calcium-ion concentration induced by ATP: more significant in a dosage-dependent manner
